Source: ChEMBL document CHEMBL4130577, “Platanic acid: A new scaffold for the synthesis of cytotoxic agents” (Eur J Med Chem, 2018)

system: HT-29; assay: cells; details: Homo sapiens, HT-29, 96 h
Description: Cytotoxicity against human HT-29 cells after 96 hrs by SRB assay

SMILES | EC50 [µM]
CC(=O)[C@@H]1CC[C@]2(C(=O)NCCN)CC[C@]3(C)[C@H](CC[C@@H]4[C@@]5(C)CC[C@H](O)C(C)(C)[C@@H]5CC[C@]43C)[C@@H]12 | 2.3
CC(=O)O[C@H]1CC[C@]2(C)[C@H]3CC[C@@H]4[C@H]5[C@H](C(C)=O)CC[C@]5(C(=O)NCCN(C)C)CC[C@@]4(C)[C@]3(C)CC[C@H]2C1(C)C | 4.5
CC(=O)O[C@H]1CC[C@]2(C)[C@H]3CC[C@@H]4[C@H]5[C@H]([C@@H](C)N)CC[C@]5(C(=O)O)CC[C@@]4(C)[C@]3(C)CC[C@H]2C1(C)C | 20.7
CC(=O)OC[C@]12CC[C@@H]([C@@H](C)N)[C@@H]1[C@H]1CC[C@@H]3[C@@]4(C)CC[C@H](OC(C)=O)C(C)(C)[C@@H]4CC[C@@]3(C)[C@]1(C)CC2 | 1.2

system: A2780; assay: Cytotoxicity against human A2780 cells after 96 hrs by SRB assay; type: functional, cell-based; details: A2780, 96 h

SMILES | EC50 [nM]
CC(=O)[C@@H]1CC[C@]2(C(=O)NCCN)CC[C@]3(C)[C@H](CC[C@@H]4[C@@]5(C)CC[C@H](O)C(C)(C)[C@@H]5CC[C@]43C)[C@@H]12 | 2500
CC(=O)O[C@H]1CC[C@]2(C)[C@H]3CC[C@@H]4[C@H]5[C@H](C(C)=O)CC[C@]5(C(=O)NCCN(C)C)CC[C@@]4(C)[C@]3(C)CC[C@H]2C1(C)C | 3800
CC(=O)O[C@H]1CC[C@]2(C)[C@H]3CC[C@@H]4[C@H]5[C@H]([C@@H](C)N)CC[C@]5(C(=O)O)CC[C@@]4(C)[C@]3(C)CC[C@H]2C1(C)C | > 30000
CC(=O)OC[C@]12CC[C@@H]([C@@H](C)N)[C@@H]1[C@H]1CC[C@@H]3[C@@]4(C)CC[C@H](OC(C)=O)C(C)(C)[C@@H]4CC[C@@]3(C)[C@]1(C)CC2 | 2500

system: 518A2; assay: Cytotoxicity against human 518A2 cells after 96 hrs by SRB assay; type: functional, cell-based; details: 518A2, 96 h

SMILES | EC50 [µM]
CC(=O)[C@@H]1CC[C@]2(C(=O)NCCN)CC[C@]3(C)[C@H](CC[C@@H]4[C@@]5(C)CC[C@H](O)C(C)(C)[C@@H]5CC[C@]43C)[C@@H]12 | 2.5
CC(=O)O[C@H]1CC[C@]2(C)[C@H]3CC[C@@H]4[C@H]5[C@H](C(C)=O)CC[C@]5(C(=O)NCCN(C)C)CC[C@@]4(C)[C@]3(C)CC[C@H]2C1(C)C | 3.7
CC(=O)O[C@H]1CC[C@]2(C)[C@H]3CC[C@@H]4[C@H]5[C@H]([C@@H](C)N)CC[C@]5(C(=O)O)CC[C@@]4(C)[C@]3(C)CC[C@H]2C1(C)C | 23.2
CC(=O)OC[C@]12CC[C@@H]([C@@H](C)N)[C@@H]1[C@H]1CC[C@@H]3[C@@]4(C)CC[C@H](OC(C)=O)C(C)(C)[C@@H]4CC[C@@]3(C)[C@]1(C)CC2 | 2.2

system: A549; assay: Cytotoxicity against human A549 cells after 96 hrs by SRB assay; type: functional, cell-based; details: A549, 96 h

SMILES | EC50 [nM]
CC(=O)[C@@H]1CC[C@]2(C(=O)NCCN)CC[C@]3(C)[C@H](CC[C@@H]4[C@@]5(C)CC[C@H](O)C(C)(C)[C@@H]5CC[C@]43C)[C@@H]12 | 2600
CC(=O)O[C@H]1CC[C@]2(C)[C@H]3CC[C@@H]4[C@H]5[C@H](C(C)=O)CC[C@]5(C(=O)NCCN(C)C)CC[C@@]4(C)[C@]3(C)CC[C@H]2C1(C)C | 2900
CC(=O)O[C@H]1CC[C@]2(C)[C@H]3CC[C@@H]4[C@H]5[C@H]([C@@H](C)N)CC[C@]5(C(=O)O)CC[C@@]4(C)[C@]3(C)CC[C@H]2C1(C)C | > 30000
CC(=O)OC[C@]12CC[C@@H]([C@@H](C)N)[C@@H]1[C@H]1CC[C@@H]3[C@@]4(C)CC[C@H](OC(C)=O)C(C)(C)[C@@H]4CC[C@@]3(C)[C@]1(C)CC2 | 2300

system: NIH3T3; assay: Cytotoxicity against mouse NIH/3T3 cells after 96 hrs by SRB assay; type: cell-based; details: NIH3T3, 96 h

SMILES | EC50 [µM]
CC(=O)[C@@H]1CC[C@]2(C(=O)NCCN)CC[C@]3(C)[C@H](CC[C@@H]4[C@@]5(C)CC[C@H](O)C(C)(C)[C@@H]5CC[C@]43C)[C@@H]12 | 2.5
CC(=O)O[C@H]1CC[C@]2(C)[C@H]3CC[C@@H]4[C@H]5[C@H](C(C)=O)CC[C@]5(C(=O)NCCN(C)C)CC[C@@]4(C)[C@]3(C)CC[C@H]2C1(C)C | 1.4
CC(=O)O[C@H]1CC[C@]2(C)[C@H]3CC[C@@H]4[C@H]5[C@H]([C@@H](C)N)CC[C@]5(C(=O)O)CC[C@@]4(C)[C@]3(C)CC[C@H]2C1(C)C | 27.2
CC(=O)OC[C@]12CC[C@@H]([C@@H](C)N)[C@@H]1[C@H]1CC[C@@H]3[C@@]4(C)CC[C@H](OC(C)=O)C(C)(C)[C@@H]4CC[C@@]3(C)[C@]1(C)CC2 | 4

system: MCF7; assay: Cytotoxicity against human MCF7 cells after 96 hrs by SRB assay; type: functional, cell-based; details: MCF7, 96 h

SMILES | EC50 [nM]
CC(=O)[C@@H]1CC[C@]2(C(=O)NCCN)CC[C@]3(C)[C@H](CC[C@@H]4[C@@]5(C)CC[C@H](O)C(C)(C)[C@@H]5CC[C@]43C)[C@@H]12 | 2400
CC(=O)O[C@H]1CC[C@]2(C)[C@H]3CC[C@@H]4[C@H]5[C@H](C(C)=O)CC[C@]5(C(=O)NCCN(C)C)CC[C@@]4(C)[C@]3(C)CC[C@H]2C1(C)C | 2500
CC(=O)O[C@H]1CC[C@]2(C)[C@H]3CC[C@@H]4[C@H]5[C@H]([C@@H](C)N)CC[C@]5(C(=O)O)CC[C@@]4(C)[C@]3(C)CC[C@H]2C1(C)C | > 30000
CC(=O)OC[C@]12CC[C@@H]([C@@H](C)N)[C@@H]1[C@H]1CC[C@@H]3[C@@]4(C)CC[C@H](OC(C)=O)C(C)(C)[C@@H]4CC[C@@]3(C)[C@]1(C)CC2 | 2100
